Test results as given in patent publication US20120276064A1, “METHODS AND COMPOSITIONS FOR REJUVENATION AND EXPANSION OF STEM CELLS” (priority 2011, published 2012).

Test system: MuSCs transplanted into tibialis anterior muscle
Experiment: Transplantation of cultured MuSCs into irradiated NOD/SCID mice, engraftment by bioluminescence imaging
Format: in vivo, mouse
Details: young MuSCs cultured one week on soft hydrogel with 10 μM; 100 cells transplanted; one month
Description: MuSC transplantation. MuSCs were transplanted immediately following FACS isolation or after collection from cell culture directly into the tibialis anterior muscle of recipient mice as previously described. Cells from GFP/Luciferase or Myf5^nLacZl+/Luciferase mice were transplanted into gender-matched, hindlimb-irradiated NOD/SCID (Jackson) mice. NOD/SCID (2-4 months of age, median 2 months) mice were anesthetized with ketamine (2.4 mg per mouse) and xylazine (240 μg per mouse) by intraperitoneal injection then were irradiated by a single dose of 18 Gy administered to the hindlimbs, with the rest of the body shielded in a lead jig. Transplantation was performed within three days post-irradiation. In syngeneic transplant studies, cells from old C57BL/6 mice were transplanted into gender-matched, littermate old C57BL/6 mice (Jackson) following culture for one week on soft hydrogels. Specifically, old C57BL/6 MuSCs were infected with a GFP/Luciferase lentivirus added at day 2 of culture for 24 hours. Recipient old C57BL/6 mice were acutely injured by a single 10 μl intramuscular injection of notexin (10 μg/ml; Latoxan, France) two days prior to cell transplantation, but were not irradiated. Freshly isolated or cultured cells were counted by hemocytometer and resuspended at desired cell concentrations in PBS with 2.5% goat serum and 1 mM EDTA. Cells were collected from hydrogel cultures by incubation with 0.5% trypsin in PBS for 2 min at 37° C. and counted using a hemocytometer. Cells were transplanted by intramuscular injection into the tibialis anterior muscle in a 10 μl volume.
Tissue histology. Recipient tibialis anterior muscle tissues were prepared for histology as previously described to analyze GFP expression. Transverse sections were incubated with anti-laminin (Millipore, Billerica, Calif.), anti-GFP (Invitrogen) antibodies, and/or anti-β-galactosidase (Abcam, Cambridge, Mass.) with appropriate secondary antibodies (Invitrogen). Nuclei were counter-stained with Hoechst 33342 (Invitrogen). Images were acquired with an AxioPlan2 epi-fluorescent microscope (Carl Zeiss Microimaging, Thornwood, N.Y.) with Plan NeoFluar 10×/0.30NA or 20×/0.75NA objectives (Carl Zeiss) and an ORCA-ER digital camera (Hamamatsu Photonics, Bridgewater, N.J.). Digital images were captured in OpenLab software (Improvision, Waltham, Mass.) and assembled in Photoshop software (Adobe, San Jose, Calif.) with consistent contrast adjustments across all images from the same stain.
Bioluminescence imaging. Bioluminescence imaging was performed using a Xenogen-100 system, as previously described. Briefly, mice were anesthetized under isofluorane and 100 μL luciferin (0.1 mmol/kg; Caliper LifeSciences, Hopkinton, Mass.) in PBS was administered by intraperitoneal injection. Following luciferin administration, images were acquired every minute for 15 min. Images acquired at 12 min post-luciferin injection were used for analysis. Digital images were recorded and analyzed using Living Image software (Caliper LifeSciences). Images were analyzed with a consistent region-of-interest (ROI) placed over each hindlimb to calculate a bioluminescence signal. A bioluminescence signal value of 80,000 photons/s was used to define a engraftment threshold, as this level corresponds to the histological detection of one or more GFP^+ myofiber (see FIG. 8A). BLI imaging was performed one month post-transplant unless otherwise stated.
MuSC culture and treatment. Following isolation, MuSCs were pelleted and resuspended into myogenic cell culture medium containing DMEM/F10 (50:50), 15% FBS, 2.5 ng/ml bFGF, and 1% penicillin/streptomycin. MuSCs were seeded at 1000 cells per well (24-well plate size wells, 2.0 cm^2 surface area) on laminin-tethered hydrogels of either 12 kPa (soft) or ˜10^6 kPa (rigid) rigidities. Cells were maintained at 37° C. in 5% CO2. Media was changed daily. […]

SMILES: C[S+]([O-])c1ccc(-c2nc(-c3ccncc3)c(-c3ccc(F)cc3)[nH]2)cc1 (stereo not shown) [SB203580]
- Transplant engraftment efficiency (in words): improves the transplant engraftment efficiency
